For the assay, the system named is 292921-168-R tumor spheroid viability. In words: Anticancer human tumor 292921-168-R patient-derived pancreatic carcinoma cell line growth inhibition. Particulars: spheroids with HUVEC and MSC; for viability, T/C: stronger effect = lower value. Put shortly: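 Complex spheroids of malignant cells with endothelial cells and mesenchymal stem cells; agents alone or combined, from near clinical Cmax (or 10 microM if unknown) down in half-log steps, 0.25% DMSO final.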

Where [1] appears, read: curve of first compound, second compound 0.003 µM.
Where [2] appears, read: curve of first compound, second compound 0.00949 µM.
[3] abbreviates: curve of first compound, second compound 0.03 µM.
Setting [4] is: curve of first compound, second compound 0.0949 µM.
Where [5] appears, read: curve of first compound, second compound 0.3 µM.

Each structure is given as a SMILES string. Values joined by “and” are separate entries in the source; they are usually repeats but may differ in a detail not shown here. Equal values may be shown once.
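Also: spheroids exposed to compounds for 7 days.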

The term IC50 denotes the concentration that gives 50% inhibition. As a reminder, the viability, T/C is the result in the treated group divided by that in the control group, in per cent. As to `O=C(c1cc(Cc2n[nH]c(=O)c3ccccc23)ccc1F)N1CCN(C(=O)C2CC2)CC1` + CC[C@@]1(O)C(=O)OCc2c1cc1n(c2=O)Cc2cc3c(CN(C)C)c(O)ccc3nc2-1, the half-inhibitory concentration (IC50) was 5.58 µM under setting [1]; 3.25 µM under setting [2]; less than 0.0949 µM under setting [3]; less than 0.0949 µM under setting [4]; less than 0.0949 µM under setting [5]. The viability, T/C is 85.8% (second compound 0.003 µM, first compound 0.0949 µM); 84.9% (second compound 0.003 µM, first compound 0.3 µM); 83.2% (second compound 0.003 µM, first compound 0.949 µM); 71.3% (second compound 0.003 µM, first compound 3 µM); 31.7% (second compound 0.003 µM, first compound 9.49 µM); 25.6% (second compound 0.003 µM, first compound 30 µM). In addition, the viability, T/C by setting is: (second compound 0.00949 µM, first compound 0.0949 µM) 58.6%; (second compound 0.00949 µM, first compound 0.3 µM) 55%; (second compound 0.00949 µM, first compound 0.949 µM) 58.4%; (second compound 0.00949 µM, first compound 3 µM) 51.2%; (second compound 0.00949 µM, first compound 9.49 µM) 31.1%; (second compound 0.00949 µM, first compound 30 µM) 23.9%. Further, the viability, T/C by setting is: (second compound 0.03 µM, first compound 0.0949 µM) 22.6%; (second compound 0.03 µM, first compound 0.3 µM) 22.7%; (second compound 0.03 µM, first compound 0.949 µM) 20.4%; (second compound 0.03 µM, first compound 3 µM) 19.9%; (second compound 0.03 µM, first compound 9.49 µM) 18.1%; (second compound 0.03 µM, first compound 30 µM) 18.6%. Moreover, the viability, T/C was 10.1% (second compound 0.0949 µM, first compound 0.0949 µM); 11.3% (second compound 0.0949 µM, first compound 0.3 µM); 11.2% (second compound 0.0949 µM, first compound 0.949 µM); 10% (second compound 0.0949 µM, first compound 3 µM); 8.85% (second compound 0.0949 µM, first compound 9.49 µM); 10.6% (second compound 0.0949 µM, first compound 30 µM). For the same molecule, the viability, T/C by setting is: (second compound 0.3 µM, first compound 0.0949 µM) 4.24%; (second compound 0.3 µM, first compound 0.3 µM) 4.06%; (second compound 0.3 µM, first compound 0.949 µM) 4.61%; (second compound 0.3 µM, first compound 3 µM) 4.65%; (second compound 0.3 µM, first compound 9.49 µM) 3.41%; (second compound 0.3 µM, first compound 30 µM) 3.89%.
As for `COc1cc(C)[nH]c(=O)c1CN1CCc2c(Cl)cc(C(OC)C3COC3)c(Cl)c2C1=O` (centres undefined) + CC[C@@]1(O)C(=O)OCc2c1cc1n(c2=O)Cc2cc3c(CN(C)C)c(O)ccc3nc2-1, the IC50 reads like this: under setting [1], more than 10 µM; under setting [2], more than 10 µM; under setting [3], 0.394 µM; under setting [4], less than 0.0316 µM; under setting [5], less than 0.0316 µM. The viability, T/C (second compound 0.003 µM, first compound 0.0316 µM) was 108%; the viability, T/C (second compound 0.003 µM, first compound 0.1 µM) is 102%; the viability, T/C (second compound 0.003 µM, first compound 0.316 µM) is 85%; the viability, T/C (second compound 0.003 µM, first compound 1 µM) is 90.7%; the viability, T/C (second compound 0.003 µM, first compound 3.16 µM) was 88.7%; the viability, T/C (second compound 0.003 µM, first compound 10 µM) was 82.8%. Moreover, the viability, T/C (second compound 0.00949 µM, first compound 0.0316 µM) was 92.6%; the viability, T/C (second compound 0.00949 µM, first compound 0.1 µM) is 94.1%; the viability, T/C (second compound 0.00949 µM, first compound 0.316 µM) is 71.3%; the viability, T/C (second compound 0.00949 µM, first compound 1 µM) was 71.5%; the viability, T/C (second compound 0.00949 µM, first compound 3.16 µM) was 81.3%; the viability, T/C (second compound 0.00949 µM, first compound 10 µM) was 63.3%. Further, the viability, T/C by setting is: (second compound 0.03 µM, first compound 0.0316 µM) 50.6%; (second compound 0.03 µM, first compound 0.1 µM) 59.1%; (second compound 0.03 µM, first compound 0.316 µM) 53.4%; (second compound 0.03 µM, first compound 1 µM) 39.2%; (second compound 0.03 µM, first compound 3.16 µM) 40.2%; (second compound 0.03 µM, first compound 10 µM) 19.8%. Further, the viability, T/C was 13.1% (second compound 0.0949 µM, first compound 0.0316 µM); 15.6% (second compound 0.0949 µM, first compound 0.1 µM); 12.9% (second compound 0.0949 µM, first compound 0.316 µM); 9.42% (second compound 0.0949 µM, first compound 1 µM); 10.1% (second compound 0.0949 µM, first compound 3.16 µM); 7.35% (second compound 0.0949 µM, first compound 10 µM). Besides, the viability, T/C by setting is: (second compound 0.3 µM, first compound 0.0316 µM) 4.43%; (second compound 0.3 µM, first compound 0.1 µM) 4.26%; (second compound 0.3 µM, first compound 0.316 µM) 3.82%; (second compound 0.3 µM, first compound 1 µM) 2.93%; (second compound 0.3 µM, first compound 3.16 µM) 3.15%; (second compound 0.3 µM, first compound 10 µM) 3.34%.
Take `[2H]c1nc(C)nc([2H])c1-c1cc(NC[C@@H](C)c2cccc3c(C(=O)NC)ccnc23)ncn1`: the viability, T/C reads like this: (compound 0.0316 µM) 106% and 103% (2×); (compound 0.1 µM) 104% and 93.4% and 89.7%; (compound 0.316 µM) 104% and 100% and 97.8%; (compound 1 µM) 115% and 99.2% and 93.3%; (compound 3.16 µM) 113% and 101% and 96.8%; (compound 10 µM) 95.7% and 91.2% and 95.8%. Besides, the IC50 (curve of compound) was more than 10 µM.
For the molecule `O=C(c1cc(Cc2n[nH]c(=O)c3ccccc23)ccc1F)N1CCN(C(=O)C2CC2)CC1`, the viability, T/C (compound 0.0949 µM) is 91.5% and 96.1% and 103%; the viability, T/C (compound 0.3 µM) is 102% and 99.1% and 96%; the viability, T/C (compound 0.949 µM) was 91.7% and 100% and 98.5%; the viability, T/C (compound 3 µM) is 87.8% and 89.6% and 92.7%; the viability, T/C (compound 9.49 µM) was 66.9% and 61.2% and 64.2%; the viability, T/C (compound 30 µM) is 39.4% and 35.8% and 35.6%. Further, the IC50 (curve of compound) is 19.2 µM and 15.7 µM and 16.8 µM.

The record behind these values is PubChem BioAssay AID1845196 (Molecular Pharmacology Branch, DTP, NCI, 2023).
